Assay results published in US10039733B2, “Compositions, method, and kits for treating pulmonary conditions” (NuSirt Sciences, Inc., priority 2013, dated 2018).

Tests used:
IL1-β = IL1-β secretion from MLEC (ELISA); assay type: cell-based, mouse; settings: MLEC treated directly; theophylline 1 μM, leucine 0.5 mM, resveratrol 200 nM; FIG. 4
Description: (§1) Interleukin 1-β, eotaxin, and interleukin 6 were all measured via enzyme-linked immunosorbent assay using specific antibodies for each cytokine (Abcam, Cambridge, Mass.) and a horseradish peroxidase-based second antibody detection system, with chromogenic detection at 450 nm using a microplate reader (Synergy HT, BioTek Instruments, Winooski, Vt.).

NFκB = NFκB protein expression by Western blot in directly treated MLEC; settings: theophylline 1 μM, leucine 0.5 mM, resveratrol 200 nM, FIG. 1
IL 6 [1] = experiment: cellular IL 6 content in MLEC (ELISA); assay type: cell-based, mouse; settings: MLEC treated directly; theophylline 1 μM, leucine 0.5 mM, resveratrol 200 nM; FIG. 7
Description: (§2) Cells were grown in Dulbecco's modified eagle's medium (DMEM) containing a growth factor supplement (Cell Biologics #M1 166) which included 5% fetal bovine serum (FBS), heparin, EGF, hydrocortisone, L-glutamine and antibiotics at 37° C. in 5% CO2.
as §1
(§3) Following treatment, western blots or ELISA assays were performed on the MLEC to determine the level of various indicators of airway diseases, such as NFκB protein expression, eotaxin secretion, IL1-β secretion, cellular IL6 content or secretion, adiponectin receptor 1 protein expression, and adiponectin receptor 2 protein expression.

[2] = system: OVA-induced asthmatic mice; experiment: BALF cellularity by flow cytometry in OVA-induced asthma; assay type: in vivo, Balb/c mice; settings: theophylline 10 mg/kg IP, baseline 12 g leucine diet
Description: The interactive effects of leucine and theophylline was evaluated in sixty young adult female Balb/c mice that were randomized to the following six groups (n=10/group):
Group 1 was an untreated control group that was administered a diet containing a baseline level of leucine at 12 g of leucine/day.
Group 2 was a positive control group that was administered dexamethasone via IP injection and a diet containing a baseline level of leucine at 12 g of leucine/day.
Group 3 was administered a diet containing a high level of leucine (diet containing leucine at 12 g/day for days 0-13 and 24 g/day beginning on day 14) and no theophylline or dexamethasone.
Group 4 was administered sub-therapeutic level of theophylline (1 mg/kg theophylline, 10% of therapeutic level) via IP injection and a high leucine diet (diet containing leucine at 12 g/day for days 0-13 and 24 g/day beginning on day 14). […]
Animals were sacrificed on day 28, subjected to bronchial alveolar lavage and the lavage fluid (BALF, 2 mL) and lungs collected. Airway inflammation was evaluated by assessing cellularity of BALF via flow cytometer; parameters used for cellular differentiation were sized granularity, autofluorescence and the expression of the following markers: CD45, Gr-1, CD11b, CCR3, B220 and CD3. […]

eotaxin = eotaxin secretion from MLEC (ELISA); assay type: cell-based, mouse; settings: MLEC treated directly; theophylline 1 μM, leucine 0.5 mM, resveratrol 200 nM; FIG. 5
Description: as §1

IL 6 [3] = experiment: IL 6 secretion from MLEC (ELISA); assay type: cell-based, mouse; settings: positive control, FIG. 8
Description: as §2, §1, §3

Row | Compound | IL1-β secretion (IL1-β) | NFκB protein expression relative to control (NFκB) | cellular expression of IL 6 (IL 6 [1]) | eosinophil number in BALF ([2]; FIG. 15) | T-cell number in BALF ([2]; trend not significant (0.05<p<0.1), FIG. 16) | eotaxin secretion into the media (eotaxin) | IL 6 secretion (IL 6 [3])
1 | Cn1c(=O)c2[nH]cnc2n(C)c1=O [theophylline] | no significant independent effect | no independent effect | unaffected | modest significant decreases | modestly reduced |  | 
2 | TNFα | significant increase |  |  |  |  | no significant effect | significant increase
